≈ marks a conversion by molar mass, not a printed value. Positions of bridges follow the written chain, without caps; N, C: chain ends. Non-standard residues stand in square brackets, D forms with d. Residues, ends and D or L forms follow the SMILES beside them. Groups on a side chain read outwards from the residue. *: point of attachment. Palmitoyl(16-(5-tetrazolyl)) = O=C(CCCCCCCCCCCCCCCc1nnn[nH]1)*; Lys(CH2CO2H)2 = N[C@@H](CCCCN(CC(=O)O)CC(=O)O)C(=O)O; C16 diacid = O=C(O)CCCCCCCCCCCCCCC(=O)*; Orn = NCCC[C@H](N)C(=O)O; Dab = NCC[C@H](N)C(=O)O; Dap = NC[C@H](N)C(=O)O; AEEA = NCCOCCOCC(=O)O
Experiment: physchem
Experimental: From a stock solution in vehicle, either H2O or 10 mM phosphate, containing 1 mg (as weighed) compound per ml, 8-11 aliquots are withdrawn and pH-adjusted individually with HCl/NaOH, to cover the whole pH range.

CC(=O)N[C@H]1CCNC(=O)C[C@@H](C(=O)N2CCC[C@H]2C(=O)N2CCC[C@H]2C(=O)N[C@@H](CCCNC(=N)N)C(=O)N[C@@H](CC(=O)O)C(=O)N[C@@H](CCCCN(CC(=O)O)CC(=O)O)C(=O)N[C@@H](CCCCNC(=O)COCCOCCNC(=O)CCCCCCCCCCCCCCCc2nnn[nH]2)C(N)=O)NC(=O)[C@H](Cc2c[nH]c3ccccc23)NC(=O)[C@H](CCCNC(=N)N)NC(=O)[C@@H](Cc2ccccc2)NC(=O)[C@H](Cc2c[nH]cn2)NC1=O [Example 25, Ac-c[Dab-His-D-Phe-Arg-Trp-Asp]-Pro-Pro-Arg-Asp-Lys(biscarboxymethyl)-Lys[(2-{2-[16-(tetrazol-5-yl)hexadecanoylamino]ethoxy}ethoxy)acetyl]-NH2] (Ac-[Dab]H[dF]RWDPPRD[Lys(CH2CO2H)2]K([AEEA-Palmitoyl(16-(5-tetrazolyl))])-NH2; lactam 1-6)
solubility (pH 6, Solubility Conc.): 24 µM (≈ 52.1 µg/mL)
solubility (pH 6.3, Solubility Conc.): 34 µM (≈ 73.9 µg/mL)
solubility (pH 7, Solubility Conc.): 133 µM (≈ 289 µg/mL)
solubility (pH 7.3, Solubility Conc.): 439 µM (≈ 954 µg/mL)
solubility (pH 7.4, Solubility Conc.): 472 µM (≈ 1030 µg/mL)
solubility (pH 7.5, Solubility Conc.): 479 µM (≈ 1040 µg/mL)
solubility (pH 7.7, Solubility Conc.): 471 µM (≈ 1020 µg/mL)
solubility (pH 8, Solubility Conc.): 498 µM (≈ 1080 µg/mL)

CC(=O)N[C@H]1CC(=O)NCC[C@@H](C(=O)N2CCC[C@H]2C(=O)N2CCC[C@H]2C(=O)N[C@@H](CCCNC(=N)N)C(=O)N[C@@H](CC(=O)O)C(=O)N[C@@H](CCCCN(CC(=O)O)CC(=O)O)C(=O)N[C@@H](CCCCNC(=O)COCCOCCNC(=O)CCCCCCCCCCCCCCCc2nnn[nH]2)C(N)=O)NC(=O)[C@H](Cc2c[nH]c3ccccc23)NC(=O)[C@H](CCCNC(=N)N)NC(=O)[C@@H](Cc2ccccc2)NC(=O)[C@H](Cc2c[nH]cn2)NC1=O [Example 30, Ac-c[Asp-His-D-Phe-Arg-Trp-Dab]-Pro-Pro-Arg-Asp-Lys(biscarboxymethyl)-Lys[(2-{2-[16-(tetrazol-5-yl)hexadecanoylamino]ethoxy}ethoxy)acetyl]-NH2] (Ac-DH[dF]RW[Dab]PPRD[Lys(CH2CO2H)2]K([AEEA-Palmitoyl(16-(5-tetrazolyl))])-NH2; lactam 1-6)
solubility (pH 5.9, Solubility Conc.): 24 µM (≈ 52.1 µg/mL)
solubility (pH 6.4, Solubility Conc.): 37 µM (≈ 80.4 µg/mL)
solubility (pH 7, Solubility Conc.): 144 µM (≈ 313 µg/mL)
solubility (pH 7.3, Solubility Conc.): 377 µM (≈ 819 µg/mL)
solubility (pH 7.5, Solubility Conc.): 478 µM (≈ 1040 µg/mL)
solubility (pH 7.6, Solubility Conc.): 493 µM (≈ 1070 µg/mL)
solubility (pH 7.9, Solubility Conc.): 497 µM (≈ 1080 µg/mL)

CC(=O)N[C@H]1CNC(=O)C[C@@H](C(=O)N2CCC[C@H]2C(=O)N2CCC[C@H]2C(=O)N[C@@H](CCCNC(=N)N)C(=O)N[C@@H](CC(=O)O)C(=O)N[C@@H](CCCCN(CC(=O)O)CC(=O)O)C(=O)N[C@@H](CCCCNC(=O)COCCOCCNC(=O)CCCCCCCCCCCCCCCc2nnn[nH]2)C(N)=O)NC(=O)[C@H](Cc2c[nH]c3ccccc23)NC(=O)[C@H](CCCNC(=N)N)NC(=O)[C@@H](Cc2ccccc2)NC(=O)[C@H](Cc2c[nH]cn2)NC1=O [Example 36, Ac-c[Dap-His-D-Phe-Arg-Trp-Asp]-Pro-Pro-Arg-Asp-Lys(biscarboxymethyl)-Lys[(2-{2-[16-(tetrazol-5-yl)hexadecanoylamino]ethoxy}ethoxy)acetyl]-NH2] (Ac-[Dap]H[dF]RWDPPRD[Lys(CH2CO2H)2]K([AEEA-Palmitoyl(16-(5-tetrazolyl))])-NH2; lactam 1-6)
solubility (pH 5.7, Solubility Conc.): 17 µM (≈ 36.7 µg/mL)
solubility (pH 6, Solubility Conc.): 18 µM (≈ 38.9 µg/mL)
solubility (pH 6.5, Solubility Conc.): 28 µM (≈ 60.4 µg/mL)
solubility (pH 7.1, Solubility Conc.): 87 µM (≈ 188 µg/mL)
solubility (pH 7.4, Solubility Conc.): 261 µM (≈ 563 µg/mL)
solubility (pH 7.5, Solubility Conc.): 488 µM (≈ 1050 µg/mL)
solubility (pH 7.6, Solubility Conc.): 504 µM (≈ 1090 µg/mL)
solubility (pH 7.9, Solubility Conc.): 514 µM (≈ 1110 µg/mL)
solubility (pH 8.1, Solubility Conc.): 505 µM (≈ 1090 µg/mL)

CC(=O)N[C@H]1CCCNC(=O)C[C@@H](C(=O)N2CCC[C@H]2C(=O)N2CCC[C@H]2C(=O)N[C@@H](CCCNC(=N)N)C(=O)N[C@@H](CCC(=O)O)C(=O)N[C@@H](CCCCN(CC(=O)O)CC(=O)O)C(=O)N[C@@H](CCCCNC(=O)COCCOCCNC(=O)CCCCCCCCCCCCCCC(=O)O)C(N)=O)NC(=O)[C@H](Cc2c[nH]c3ccccc23)NC(=O)[C@H](CCCNC(=N)N)NC(=O)[C@@H](Cc2ccccc2)NC(=O)[C@H](Cc2c[nH]cn2)NC1=O [Example 42, Ac-c[Orn-His-D-Phe-Arg-Trp-Asp]-Pro-Pro-Arg-Glu-Lys(biscarboxymethyl)-Lys({2-[2-(15-carboxypentadecanoylamino)ethoxy]ethoxy}acetyl)-NH2] (Ac-[Orn]H[dF]RWDPPRE[Lys(CH2CO2H)2]K([AEEA-C16 diacid])-NH2; lactam 1-6)
solubility (pH 4.9, Solubility Conc.): 153 µM (≈ 331 µg/mL)
solubility (pH 5.8, Solubility Conc.): 240 µM (≈ 519 µg/mL)
solubility (pH 6.4, Solubility Conc.): 364 µM (≈ 787 µg/mL)
solubility (pH 6.7, Solubility Conc.): 421 µM (≈ 910 µg/mL)
solubility (pH 7, Solubility Conc.): 449 µM (≈ 971 µg/mL)
solubility (pH 7.2, Solubility Conc.): 438 µM (≈ 947 µg/mL)
solubility (pH 7.5, Solubility Conc.): 441 µM (≈ 954 µg/mL)
solubility (pH 7.9, Solubility Conc.): 476 µM (≈ 1030 µg/mL)
solubility (pH 8.1, Solubility Conc.): 417 µM (≈ 902 µg/mL)
